{"source": "paper PMC5408584", "about": "(Lipids, 2016)", "key": {"rat FABP1 [1]": {"target": "T1, rat FABP1 (Rattus norvegicus, UniProt P02692)", "T1 sequence (P02692 1-127)": "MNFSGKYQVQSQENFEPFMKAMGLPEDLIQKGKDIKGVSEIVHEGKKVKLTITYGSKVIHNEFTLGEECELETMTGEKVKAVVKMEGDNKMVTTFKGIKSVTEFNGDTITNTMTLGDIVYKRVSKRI", "settings": "read-out: Ki, displacement of FABP1-bound cis-parinaroyl-CoA; rat FABP1, mean ± SE n=3, Fig 1A; cited from earlier work"}, "human WT FABP1 [2]": {"target": "T2, human WT FABP1 (Homo sapiens, UniProt P07148)", "T2 sequence (P07148 1-127)": "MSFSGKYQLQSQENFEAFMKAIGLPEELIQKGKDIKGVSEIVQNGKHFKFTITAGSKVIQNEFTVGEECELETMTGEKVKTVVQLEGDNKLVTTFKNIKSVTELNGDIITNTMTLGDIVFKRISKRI", "assay": "DAUDA fluorescent ligand displacement assay, human FABP1", "assay_type": "binding", "settings": "AEA 0–6μM, Fig 1B"}, "human WT FABP1 [3]": {"target": "T2, human WT FABP1", "assay": "cis-parinaroyl-CoA fluorescent ligand displacement assay, human FABP1", "assay_type": "binding", "settings": "AEA 0–6μM, Fig 1B"}, "human FABP1 [4]": {"target": "human FABP1", "settings": "read-out: Ki (printed Kids), ANS displacement; cited from earlier work"}, "rat FABP1 [5]": {"target": "T1, rat FABP1", "settings": "cited from earlier work; for number of ligand molecules bound per FABP1 (binding sites): rat FABP1, fractional saturation curves, Fig 2B; for Kd: read-out: Kd, direct binding of NBD-labeled ligand, rat FABP1, mean ± SE n=3, Fig 2B"}, "L-cells": {"system": "L-cells", "assay": "Cellular uptake of NBD-labeled probes by confocal imaging", "assay_type": "cell-based, murine", "settings": "Fig 3B"}, "human FABP1 T94A variant": {"system": "human FABP1 T94A variant", "settings": "T94A variant vs WT human FABP1; cited from earlier work"}, "human FABP1 [6]": {"system": "human FABP1", "settings": "cited from earlier work"}}, "data": [{"smiles": "CCCCC/C=C\\C/C=C\\C/C=C\\C/C=C\\CCCC(=O)OC(CO)CO", "note": "[2-AG, 2-arachidonoylglycerol]", "values": [{"measurement": "Ki", "setting": "rat FABP1 [1]", "value": "0.205 ± 0.003", "unit": "µM"}]}, {"smiles": "CCCCC/C=C\\C/C=C\\C/C=C\\C/C=C\\CCCC(=O)NCCO", "note": "[AEA, N-arachidonoylethanolamide]", "values": [{"measurement": "displacement of human FABP1 bound DAUDA", "setting": "human WT FABP1 [2]", "value": "did displace"}, {"measurement": "Ki", "setting": "rat FABP1 [1]", "value": "0.4 ± 0.02", "unit": "µM"}, {"measurement": "displacement of human FABP1 bound cis-parinaroyl CoA", "setting": "human WT FABP1 [3]", "value": "did not displace"}]}, {"smiles": "CCCCC/C=C\\C/C=C\\C/C=C\\C/C=C\\CCCC(=O)O", "note": "[ARA, arachidonic acid]", "values": [{"measurement": "Ki", "setting": "human FABP1 [4]", "value": "0.113 ± 0.006", "unit": "µM"}]}, {"smiles": "O=C(CCC/C=C\\C/C=C\\C/C=C\\C/C=C\\CCCCCNc1ccc([N+](=O)[O-])c2nonc12)OC(CO)CO", "note": "[NBD-2-AG]", "values": [{"measurement": "number of ligand molecules bound per FABP1 (binding sites)", "setting": "rat FABP1 [5]", "value": "single"}, {"measurement": "Kd", "setting": "rat FABP1 [5]", "value": "0.25 ± 0.05", "unit": "µM"}, {"measurement": "maximal uptake, fold higher than that of NBD-ARA", "setting": "L-cells", "value": "at least 1.6 fold"}]}, {"smiles": "O=C(CCC/C=C\\C/C=C\\C/C=C\\C/C=C\\CCCCCNc1ccc([N+](=O)[O-])c2nonc12)NCCO", "note": "[NBD-AEA, 20-[(7-nitro-2-1,3-benzoxadiazol-4-yl)amino] arachidonoylethanolamide]", "values": [{"measurement": "number of ligand molecules bound per FABP1 (binding sites)", "setting": "rat FABP1 [5]", "value": "single"}, {"measurement": "Kd", "setting": "rat FABP1 [5]", "value": "0.8 ± 0.2", "unit": "µM"}, {"measurement": "maximal uptake, fold higher than that of NBD-ARA", "setting": "L-cells", "value": "at least 1.6 fold"}]}, {"smiles": "O=C(O)CCC/C=C\\C/C=C\\C/C=C\\C/C=C\\CCCCCNc1ccc([N+](=O)[O-])c2nonc12", "note": "[NBD-ARA, 20-[(7-nitro-2-1,3-benzoxadiazol-4-yl)amino] arachidonic acid]", "values": [{"measurement": "number of ligand molecules bound per FABP1 (binding sites)", "setting": "rat FABP1 [5]", "value": "two"}, {"measurement": "Kd", "setting": "rat FABP1 [5]", "value": "0.66 ± 0.06", "unit": "µM"}]}, {"smiles": "CC(C)CCC[C@@H](C)[C@H]1CC[C@H]2[C@@H]3CC=C4C[C@@H](O)CC[C@]4(C)[C@H]3CC[C@]12C", "note": "[cholesterol]", "values": [{"measurement": "fold increase in affinity of human FABP1 by T94A substitution", "setting": "human FABP1 T94A variant", "value": 3, "unit": "fold"}, {"measurement": "fold weaker affinity of human FABP1 compared to rat FABP1", "setting": "human FABP1 [6]; human vs rat FABP1", "value": 3.5, "unit": "fold"}]}, {"smiles": "CCCCCCCC/C=C\\CCCCCCCC(=O)SCCNC(=O)CCNC(=O)[C@H](O)C(C)(C)COP(=O)(O)OP(=O)(O)OC[C@H]1O[C@@H](n2cnc3c(N)ncnc32)[C@H](O)[C@@H]1OP(=O)(O)O", "note": "[oleoyl-CoA]", "values": [{"measurement": "fold higher affinity of human FABP1 compared to rat FABP1", "setting": "human FABP1 [6]; human vs rat FABP1 within the same study", "value": 2.2, "unit": "fold"}]}]}
